Results published in patent publication US20090061515A1, “Methods of inhibiting or suppressing cellular proliferation” (priority 2007, published 2009).

Key:
Type in all cases: cell-based
[1] = system: Normal Human Dermal Fibroblast (NHDF) cells; assay: Cell proliferation and viability assays (CyQuant, CellTiter-Glo, CellTiter 96), NHDF (Example 5); conditions: 48 hours
Description: Multiple assays were used to test a variety of cellular properties expressed after exposure of different cells types to 5,6-dihydroxy-hexan-2-one. A cell proliferation assay available under the trade designation CyQuant from Invitrogen Corporation (Carlsbad, Calif.) determines the density of cells in culture by using a green fluorescent dye which fluoresces when bound to cellular nucleic acids. The amount of nucleic acid present is proportional to the amount of living cells in culture. […]
The amount of ATP present is proportional to the measured amount of a luminescent signal and therefore the amount of viable cells. […] The absorbance read is proportional to the amount of metabolic activity present in the cells.
Normal human dermal fibroblast (NHDF) cells and coronary artery smooth muscle cells (CASMC) in culture were exposed to 5,6-dihydroxy-hexan-2-one at concentrations of 10 microgram/ml, 1 mg/ml, and 10 mg/ml, for 48 hours, after which the cell culture wells were analyzed for cell proliferation and viability. […] FIG. 17 is a graphical representation of fibroblast cell numbers measured after 48 hours exposure to different concentrations of 5,6-dihydroxy-hexan-2-one. FIG. 18 is a graphical representation of smooth muscle cell numbers measured after 48 hours exposure to different concentrations of 5,6-dihydroxy-hexan-2-one. […]

[2] = system: Normal Human Dermal Fibroblast (NHDF) cells; assay: Cell count and visual morphology of NHDF after exposure and after re-plating (Example 3); conditions: for cell count: NHDF seeded at 45,000 cells/well, 48 hours of exposure; for growth after re-plating without compound: then 96 hours in fresh media without compound
Experimental: The 5,6-dihydroxy-hexan-2-one (1.2 grams) was dissolved in 12 ml of phosphate buffered saline and was filter sterilized through a 0.22 micrometer syringe filter prior to use. The 5,6-dihydroxy-hexan-2-one was further diluted to 10^−1, 10^−2, 10^−3, 10^−4, 10^−5, and 10^−6 using serial dilutions for the evaluation.
NHDF were seeded at 45,000 cells/well in 24 well plate(s). Cells were grown for 72 hours, 48 hours of which was done in the presence of the test chemicals. 24 hours after seeding, 5,6-dihydroxy-hexan-2-one was added to the cell culture plates (2 ml/well). Assay plates were pulled for analysis at 24 and 48 hours after addition of the chemical compound. Samples were analyzed on the above-described assay as provided in the instructions for use of the assay.
Cell counts were taken after the cells had been plated for 72 hours and exposed to 5,6-dihydroxy-hexan-2-one for 48 hours.
After 48 hours of exposure to 5,6-dihydroxy-hexan-2-one, a cell count was taken on the 10^−1 concentration group and the 10^−6 concentration group. The 10^−1 cell count was 45,000 cells/well and the 10^−6 cell count was 275,000 cells/well. The count for the 10^−1 concentration group yielded the same number of cells that were previously seeded, while the 10^−6 concentration group had continued to grow rapidly without problems. Cells from these two different groups were then plated out at the same density as before, but without exposure to 5,6-dihydroxy-hexan-2-one and in fresh media for 96 hours. Visual representations of these two groups can be seen in FIG. 5 (10^−1, exposed to 5,6-dihydroxy-hexan-2-one for 48 hours, continued the culture for an additional 96 hours without 5,6-dihydroxy-hexan-2-one) and FIG. 6 (10^−6, exposed to 5,6-dihydroxy-hexan-2-one for 48 hours, continued the culture for an additional 96 hours without 5,6-dihydroxy-hexan-2-one).

[3] = system: Normal Human Dermal Fibroblasts (NHDF); assay: Cell growth / cell counts of NHDF during exposure and 96 hours after removal (Example 4); conditions: for Cell Counts after exposure and additional 96 hours with compound removed: NHDF re-seeded at 45,000 cells/well; for cell growth during exposure, in words: 24 and 48 hours of exposure
Experimental: Examination of the cell growth effects upon 24 hour and 48 hour exposure of Normal Human Dermal Fibroblasts (NHDF) to 5,6-dihydroxy-hexan-2-one. After the 24 hour or 48 hour exposures, the 5,6-dihydroxy-hexan-2-one was removed and the cells were allowed to grow for an additional 96 hours, then evaluated for growth.
The assay used was a luminescent cell viability assay available under the trade designation CellTiter-Glo from Promega Corporation (Madison, Wis.). This assay determines the number of viable cells present based on the amount of adenosine triphosphate (ATP) present from the cell cytoplasm. The concentration of ATP present is proportional to the measured amount of a luminescent signal. […] The Normal Human Dermal Fibroblasts were available from Clonetics Corporation (San Diego, Calif.).
The 5,6-dihydroxy-hexan-2-one (1.2 grams) was dissolved in 12 ml of phosphate buffered saline and was filter sterilized through a 0.22 micrometer syringe filter prior to use. The 5,6-dihydroxy-hexan-2-one was further diluted to 10^−1, 10^−2, and 10^−3 using serial dilutions for the evaluation.
NHDF were seeded at 45,000 cells/well in four 24 well plates (two testing cell growth and two to re-seed after 24 and 48 hours without 5,6-dihydroxy-hexan-2-one). 24 hours after seeding, 5,6-dihydroxy-hexan-2-one was added to the cell culture plates (2 ml/well) at a concentration of 10^−1, 10^−2, and 10^−3. Assay plates were pulled for cell growth analysis at 24 and 48 hours after addition of the chemical compound. Samples were analyzed on the above-described assay according to a published method. The other two assay plates were washed and re-seeded at 45,000 cells/well at 24 and 48 hour time points without the presence of 5,6-dihydroxy-hexan-2-one. Both plates were grown for an additional 96 hours before a cell count was taken.
To determine proliferation potential post-exposure, cells were reseeded after exposure to 5,6-dihydroxy-hexan-2-one as follows. Additional groups of cells exposed to 5,6-dihydroxy-hexan-2-one for 24 and 48 hours were then washed thoroughly to remove 5,6-dihydroxy-hexan-2-one and harvested from the culture substrate. Those cells were then plated out at the same density as before, but without exposure to 5,6-dihydroxy-hexan-2-one. These two groups were supplied with fresh media and allowed to grow for 96 additional hours. Visual representation of the 10^−1 and 10^−2 groups can be seen in FIG. 15 (10^−1, re-seeded without 5,6-dihydroxy-hexan-2-one for 96 hours) and FIG. 16 (10^−2, re-seeded without 5,6-dihydroxy-hexan-2-one for 96 hours).

SMILES: CC(=O)CCC(O)CO (centres unmarked) [5,6-dihydroxy-hexan-2-one]
- cell proliferation ([1]; 10 mg/ml): inhibition of cell proliferation
- cell proliferation ([1]; other concentrations (10 microgram/ml, 1 mg/ml)): did not show this effect
- cell count ([2]; 10^-1 concentration): 45,000 cells/well
- cell count ([2]; 10^-6 concentration): 275,000 cells/well
- growth after re-plating without compound ([2]; NHDF, 10^-1, exposed 48 hours): impaired ability for cell proliferation
- visual morphological study ([2]; NHDF, 10^-1 concentration, 24 and 48 hours): signs of cell distress
- visual physical cellular response ([2]; NHDF, 10^-1 concentration, 48 hours): Fewer human dermal fibroblasts cells were observed
- growth after re-plating without compound ([2]; NHDF, 10^-6, exposed 48 hours): continued to grow without problems
- Cell Counts after exposure and additional 96 hours with compound removed ([3]; 0.1 mg/ml, 24 Hour Group): 200,000 cells
- Cell Counts after exposure and additional 96 hours with compound removed ([3]; 0.1 mg/ml, 48 Hour Group): 207,500 cells
- Cell Counts after exposure and additional 96 hours with compound removed ([3]; 1 mg/ml, 24 Hour Group): 172,000 cells
- Cell Counts after exposure and additional 96 hours with compound removed ([3]; 1 mg/ml, 48 Hour Group): 165,000 cells
- Cell Counts after exposure and additional 96 hours with compound removed ([3]; 10 mg/ml, 24 Hour Group): 55,000 cells
- Cell Counts after exposure and additional 96 hours with compound removed ([3]; 10 mg/ml, 48 Hour Group): 65,000 cells
- Cell Counts after exposure ([3]; NHDF, 0.1 mg/ml, 24 Hour Group): 180,000 cells
- Cell Counts after exposure ([3]; NHDF, 0.1 mg/ml, 48 Hour Group): 305,000 cells
- Cell Counts after exposure ([3]; NHDF, 1 mg/ml, 24 Hour Group): 160,000 cells
- Cell Counts after exposure ([3]; NHDF, 1 mg/ml, 48 Hour Group): 150,000 cells
- Cell Counts after exposure ([3]; NHDF, 10 mg/ml, 24 Hour Group): 65,000 cells
- Cell Counts after exposure ([3]; NHDF, 10 mg/ml, 48 Hour Group): 80,000 cells
- cell growth during exposure, in words ([3]; NHDF, 10^-1 concentration group): only a minimal amount of growth
- cell growth after 96 hours without compound, in words ([3]; NHDF, 10^-1 group, after withdrawal): significant inhibition of cell growth
- cell growth during exposure, in words ([3]; NHDF, 10^-2 concentration group): reduced from the control
- cell growth after 96 hours without compound, in words ([3]; NHDF, 10^-2 group, after withdrawal): slight reduction of cell growth
- cell growth after withdrawal, in words ([3]; NHDF, 10^-3 concentration (lowest tested), after withdrawal): behave similar to controls
- cell growth during exposure, in words ([3]; NHDF, 10^-3 concentration group): continued to grow without problems
